Measurements taken from patent US20260167972A1, “AMINO ACID DERIVATIVES AS NOVEL DELIVERY AGENTS FOR FUNCTIONAL DELIVERY OF OLIGONUCLEOTIDES” (University of Rochester, priority 2022, published 2026).
Entries after “also recorded” stand apart in the source; their conditions may differ.

Columns and labels:
[1] = Transmission electron microscopy of N-X-Phe-DAP/siRNA nanoparticles; format: physicochemical; conditions: for Diameter (nm), TEM: N-X-Phe-DAP/siRNA nanoparticles, 5 μM derivative, 30 nM siRNA, ± standard deviation; for morphology of siRNA nanoparticles/aggregates: TEM images, FIG. 4
Procedure: Each N-X-Phe-DAP derivative (100 μM) was mixed with siRNA (600 nM) in H2O for 30 minutes, followed by dilution of this mixture into DMEM cell culture media to final concentrations of 5 μM N-X-Phe-DAP derivative and 30 nM siRNA. Dynamic light scattering (DLS) and transmission electron microscopy (TEM) were utilized to analyze the physical characteristics of the resulting N-X-Phe-DAP/siRNA nanoparticles (Table 2, FIG. 4). […] Average diameter (nm), determined by dynamic light scattering (DLS) and TEM imaging, is reported as the average of […] with the error reported as the standard deviation of the mean. Binding affinity (Kd) of each agent to siRNA was determined by a slot blot filtration assay with values reported as the average of three measurements and error reported as the standard deviation of the mean. […] (B) Diameter (nm) determined by TEM (n=9, ***p≤0.001 ****p≤0.0001).
Transmission Electron Microscopy: N-X-Phe-DAP derivatives (100 μM) were complexed with siRNA (600 nM) in Ultrapure™ DNase/RNase-Free Distilled Water (Invitrogen 10977015) and allowed to incubate for 30 minutes at room temperature. These solutions were then diluted into water to give final concentrations of 5 μM Phe derivative and 30 nM siRNA. Samples (5 μL) were spotted on 200 mesh carbon coated copper grids and excess solvent was removed by capillary action with filter paper after 60 seconds. Grids were then stained with uranyl acetate (5 μL) for 60 seconds by excess solvent was removed by capillary action with filter paper. Grids were left to dry for 10 minutes. Images were taken using a Hitachi 7650 transmission electron microscope with an accelerating voltage of 80 kV.

[2] = system: thyroid transcription factor-1 (TTF-1) mRNA expression in A549 lung carcinoma cells; test: TTF-1 knockdown determination by RT-qPCR; format: cell-based, human; set-up: knockdown (reduction) of TTF-1 mRNA: concentration or dose not given beside the values; conditions: for Relative TTF-1 mRNA Expression (Normalized to GAPDH) / knockdown (reduction) of TTF-1 mRNA: A549 cells, TTF-1 siRNA; for Relative TTF-1 mRNA Expression (Normalized to GAPDH): 4 h dosing then 48 h incubation; for knockdown (reduction) of TTF-1 mRNA: normalized to GAPDH; for knockdown efficacy group: relative to Lipofectamine
Text: Finally, N-X-Phe derivatives achieved functional delivery of siRNA. To verify delivery of functional siRNA using N-X-Phe-DAP/siRNA particles, relative thyroid transcription factor-1 (TTF-1) mRNA expression normalized to GAPDH in A549 lung carcinoma cells was quantified against knockdown efficiencies with Lipofectamine as a control delivery agent (FIG. 6, Table 3). […] “Scrambled” is control siRNA delivered with Lipofectamine. TTF-1 is delivery of TTF-1 siRNA with Lipofectamine (n=5, *p≤0.05, **p≤0.01, ****p≤0.0001).
Sample Preparation for Cell-Based Experiments: For delivery analysis and functional knockdown, N-X-Phe-DAP derivatives (10 μL, 1 mM) or Lipofectamine 3000 (6 μL) was mixed with TTF-1 siRNA (Santa Cruz Biotechnology sc-36756, 6 μL, 10 μM) in Ultrapure™ DNase/RNase-Free Distilled Water (Invitrogen 10977015) to give a final volume of 100 μL. These mixtures were incubated for 30 minutes at room temperature, followed by dilution into 1×DMEM (Gibco 11965092, 1.9 mL). For cytotoxicity assays, N-X-Phe-DAP derivatives (10 μL, 1 mM) were diluted into 1×DMEM (Gibco 11965092, 1.9 mL).
TTF-1 Knockdown Determination: All knockdown experiments were performed in triplicate. A549 cells were seeded at a density of 1.05×10^5 cells/well in a 96-well plate (200 μL) and grown to 70-90% confluency. Cells were washed twice with 1×PBS (200 μL/well), N-X-Phe-DAP/siRNA samples were added (200 μL/well), and mixtures were incubated for 4 h at 37° C., 5% CO2. After 4 h, the media was removed, cells were washed with 1×PBS, wells were replenished with complete media containing 1×DMEM (Gibco 11965092), 10% fetal bovine serum (FBS, Invitrogen 26140087), and 1× antibiotic-antimycotic (Gibco 15240-062) and incubated an additional 48 h.
Cells were lysed and RNA was extracted using an Aurum Total RNA Mini Kit (Bio-Rad 7326820). In brief, cells were lysed with Lysis solution containing 1% β-mercaptoethanol (200 μL). Lysate was then mixed with 70% EtOH (200 μL) and processed using QIAshredder homogenizer columns (Qiagen 79656). Homogenate was then transferred to Aurum RNA binding columns, washed with Low Stringency Wash Solution, and incubated with diluted DNase I solution (80 μL) for 15 minutes at RT. Samples were then serially washed with High and Low Stringency Wash Solutions and RNA was eluded from the column with Ultrapure™ DNase/RNase-Free Distilled Water (Invitrogen 10977015, 80 μL). Recovered RNA was quantified on a Nanodrop One system and samples were diluted in Ultrapure™ DNase/RNase-Free Distilled Water (Invitrogen 10977015, 2 ng/μL). Relative TTF-1 knockdown was quantified by RT-qPCR
An iScript cDNA Synthesis Kit (Bio-Rad 1708891) was used for reverse transcription of extracted RNA samples. In brief, samples were prepared by combining 5× iScript Reaction Mix (4 μL), iScript Reverse Transcriptase (1 μL), extracted RNA (12.5 μL, 2 ng/μL), and Ultrapure™ DNase/RNase-Free Distilled Water (Invitrogen 10977015, 2.5 μL). Samples were incubated on a Bio-Rad Thermal Cycler using the following protocol: 5 min priming at 25° C., 20 min reverse transcription at 40° C., and 1 min reverse transcriptase inactivation at 95° C. Recovered cDNA was quantified on a Nanodrop One and samples were diluted in Ultrapure™ DNase/RNase-Free Distilled Water (Invitrogen 10977015, 50 ng/μL). Gene expression was quantified utilizing qPCR. A primer stock solution (750 nM, 267 μL, H2O) of TTF-1 (Santa Cruz Biotechnology, sc-36756-PR) or GAPDH (Santa Cruz Biotechnology, sc-35448-PR) primer pairs were prepared by dilution of Primer A (20 μL, 10 μM) and Primer B (20 μL, 10 μM) into Ultrapure™ DNase/RNase-Free Distilled Water (Invitrogen 10977015, 227 μL). Samples were prepared in triplicate by combining 2× iTaq Universal SYBR Green Super Mix (5 μL, Bio-Rad), TTF-1 or GAPDH primer stock (4 μL, 750 nM), and recovered cDNA (1 μL, 50 ng/μL) in sterile qPCR tubes. Quantitative Ct values were obtained by running samples on a Bio-Rad CFX96 Touch using the “PWRUP60” protocol. […]

Row | Diameter (nm), TEM [1] | morphology of siRNA nanoparticles/aggregates [1] | Compound | Relative TTF-1 mRNA Expression (Normalized to GAPDH) [2] | knockdown (reduction) of TTF-1 mRNA [2] | knockdown efficacy group [2]
1 | 211 ± 17 nm | spherical micelle-like structures | NCCCNC(=O)[C@H](Cc1ccccc1)NC(=O)Cc1cccc2ccccc12 [1-Nap-Phe-DAP] | 13.8 ± 3.7 | 86% | highly effective knockdown (dramatically improved relative to Lipofectamine)
2 | 450 ± 27 nm | spherical micelle-like structures | NCCCNC(=O)[C@H](Cc1ccccc1)NC(=O)Cc1ccc2ccccc2c1 [2-Nap-Phe-DAP] | 13.4 ± 1.4 | 87% | highly effective knockdown (dramatically improved relative to Lipofectamine)
3 | 93 ± 9 nm | smaller spheres | NCCCNC(=O)[C@H](Cc1ccccc1)NC(=O)OCc1ccccc1 [Cbz-Phe-DAP] | 30.9 ± 3.0 | approximately 70% | effective knockdown (slightly improved or similar relative to Lipofectamine)
4 | 71 ± 2 nm | smaller spheres | NCCCNC(=O)[C@H](Cc1ccccc1)NC(=O)C1CCCCC1 [Cyc-Phe-DAP] | – | – | ineffective knockdown (less effective than Lipofectamine)
5 | 163 ± 10 nm | spherical micelle-like structures | NCCCNC(=O)[C@H](Cc1ccccc1)NC(=O)CC1c2ccccc2-c2ccccc21 [Fm-Phe-DAP] | 37.9 ± 8.3 | ~62% | effective knockdown (slightly improved or similar relative to Lipofectamine)
6 | 136 ± 7 nm | spherical micelle-like structures | NCCCNC(=O)[C@H](Cc1ccccc1)NC(=O)OCC1c2ccccc2-c2ccccc21 [Fmoc-Phe-DAP] | 17.4 ± 2.1 | 83% | highly effective knockdown (dramatically improved relative to Lipofectamine)

Row | Compound | Diameter (nm), TEM [1] | morphology of siRNA nanoparticles/aggregates [1] | Relative TTF-1 mRNA Expression (Normalized to GAPDH) [2] | knockdown (reduction) of TTF-1 mRNA [2] | knockdown efficacy group [2]
7 | NCCCNC(=O)[C@H](Cc1cccc(F)c1)NC(=O)OCC1c2ccccc2-c2ccccc21 [Fmoc-3F-Phe-DAP] | 170 ± 8 nm | mixtures of spherical particles and one-dimensional fibril-like structures | 51.8 ± 6.6 | ~48% | –
8 | NCCCNC(=O)[C@H](Cc1c(F)c(F)c(F)c(F)c1F)NC(=O)OCC1c2ccccc2-c2ccccc21 [Fmoc-F5-Phe-DAP] | 140 ± 12 nm | mixtures of spherical particles and one-dimensional fibril-like structures | 38.6 ± 4.9 | ~61% | effective knockdown (slightly improved or similar relative to Lipofectamine)
9 | CCCCCCC(=O)N[C@@H](Cc1ccccc1)C(=O)NCCCN [Hex-Phe-DAP] | 81 ± 10 nm | mixtures of spherical particles and one-dimensional fibril-like structures; also recorded: primarily exhibiting fibril and sheet-like structures that aggregate into bundles | – | – | ineffective knockdown (less effective than Lipofectamine)
10 | NCCCNC(=O)[C@H](Cc1ccccc1)NC(=O)CCCc1ccc2ccc3cccc4ccc1c2c34 [Pyr-Phe-DAP] | 50 ± 5.0 nm | mixtures of spherical particles and one-dimensional fibril-like structures; also recorded: dominated by fibril-like structures with some evidence of spherical nanoparticles | 33.0 ± 2.2 | approximately 70% | effective knockdown (slightly improved or similar relative to Lipofectamine)
